In the experiment the target is T1, Bovine serum albumin (BSA) (Bos taurus, UniProt P02769).
T1 construct: gene ALB
As to conditions: read-out: Kb M^-1)).

Experimental findings from paper PMC10559868, “Spectroscopic study and molecular simulation: Bovine serum albumin binding with anticancer Pt complex of amyl dithiocarbamate ligand” (Heliyon, 2023) are described below.

T1 sequence (P02769 25-607): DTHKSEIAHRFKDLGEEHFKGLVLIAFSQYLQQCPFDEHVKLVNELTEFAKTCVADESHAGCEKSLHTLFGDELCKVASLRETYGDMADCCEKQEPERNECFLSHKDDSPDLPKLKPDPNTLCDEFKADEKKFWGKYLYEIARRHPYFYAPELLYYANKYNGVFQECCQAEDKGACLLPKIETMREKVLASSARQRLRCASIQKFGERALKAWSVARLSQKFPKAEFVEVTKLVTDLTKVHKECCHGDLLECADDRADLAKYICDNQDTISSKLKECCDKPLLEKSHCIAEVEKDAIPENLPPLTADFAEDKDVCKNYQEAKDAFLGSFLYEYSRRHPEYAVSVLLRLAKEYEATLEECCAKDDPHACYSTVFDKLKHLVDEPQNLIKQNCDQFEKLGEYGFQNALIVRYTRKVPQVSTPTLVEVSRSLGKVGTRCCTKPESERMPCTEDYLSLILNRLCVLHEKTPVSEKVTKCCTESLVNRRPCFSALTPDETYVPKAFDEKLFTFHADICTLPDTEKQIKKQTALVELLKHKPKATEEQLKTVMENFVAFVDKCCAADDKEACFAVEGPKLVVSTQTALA

With `CCCCCNC1=[S+][Pt-2]2([S]1)[n+]1ccccc1-c1cccc[n+]12` [[Pt(bpy)(amyl.dtc)]NO3], the Kd is 148 µM.
